# Reference: ChEMBL document CHEMBL3507680, “University of Dundee, Gates Library screen for HepG2 cell viability”
# Experiment: Human HepG2 cell viability assay in 384 well format
# Format: toxicity, cell-based
# Parameters: dose 125 nL, time 70.5 hour; concentration not given beside the values
# Details: HepG2 cells, read-out: Inhibition
row,Compound,cytotoxicity at 70.5 h [%]
1,c1cc(CN2CCC(c3ccnc4nccn34)C2)ccn1 (stereo not given),-1.62
2,CO[C@H]1C[C@@H]2CN(C(=O)c3ccc(C)s3)C[C@@H]2C1,-4.22
3,NC(=O)c1cnn2c(C3CCCN(C4CCOCC4)C3)ccnc12 (stereo not given),-0.336
4,NC(=O)c1cnn2c(C3CCN(CCO)CC3)ccnc12,-3.75
5,Cc1cc(N(C)C)cc(C2CCN(S(=O)(=O)c3cccs3)C2)n1 (stereo not given),14.4
6,Cc1cc(N(C)C)cc(C2CCN(S(=O)(=O)c3cccnc3)C2)n1 (stereo not given),1.07
7,Cn1ncc2ccc(C3CCCN(Cc4ccsc4)C3)nc21 (stereo not given),7.16
8,Nc1nc(N)c2c(n1)OC1(CCN(C(=O)CC3CCNCC3)CC1)C2,8.24
9,Nc1nc(N)c2c(n1)OC1(CCN(C(=O)CC3CCCNC3)CC1)C2 (stereo not given),1.11
10,CC1(c2[nH]ncc2C(N)=O)CCN(c2ncccn2)CC1,17.1
11,COc1ccc(CN(C)[C@@H]2CN(S(=O)(=O)C(C)C)C[C@H]2O)cc1,-2.64
12,CNc1cncc(C2CCCN2C(=O)CCn2ccnc2C(C)C)n1 (stereo not given),-3
13,CCS(=O)(=O)N1C[C@@H](O)[C@H](N(C)Cc2ccc(F)cc2)C1,0.693
14,CN(Cc1ccc(F)cc1)[C@@H]1CN(S(=O)(=O)N(C)C)C[C@H]1O,-0.678
15,Cn1ncc2ccc(C3CCCN(Cc4cccs4)C3)nc21 (stereo not given),-0.364
16,Cc1c(S(=O)(=O)N2CCCCC2c2nnc(-c3cccs3)o2)cnn1C (stereo not given),-2.57
17,COCC(=O)N1CCCCC1c1nc(N(C)C)ncc1-c1cc(C)no1 (stereo not given),21.1
18,CC1(Cc2ccc(Cl)cc2)Cc2cc(CCC(=O)O)ccc2O1 (stereo not given),-6.16
19,CC(C)N1CCCC(CCCc2ccccn2)(C(=O)O)C1 (stereo not given),-14.7
20,NC(=O)C1(c2cnccn2)CCCN1Cc1cc2ccccc2o1 (stereo not given),-9.2
21,COCC(=O)N1CCCC1c1ccnc(Nc2cnccn2)n1 (stereo not given),-7.05
22,CN(Cc1ccc(F)cc1)CC1(O)CCN(C(=O)c2ccccc2)C1 (stereo not given),-2.54
23,CNc1cncc(C2CCCN2Cc2ccccc2OCC(=O)O)n1 (stereo not given),-8.8

row,Compound,cytotoxicity at 70.5 h [%]
1,Fc1ccc(CN2CCC(c3nccnc3-n3ccnc3)CC2)cc1,2.75
2,NCc1cnn(-c2ccccc2C(=O)NCCCn2ccnc2)c1,-6.34
3,Nc1nc(C2CCN(C(=O)c3cncs3)CC2)cs1,-2.63
4,COc1ccccc1C(=O)N1CC(Cc2nccc3ccn(C)c23)C1,-0.41
5,Oc1nc(N2CCOCC2)nc2c1CCN(Cc1cccnc1)CC2,-1.7
6,Cc1cc(C)cc(-c2ccc(CC3(C(=O)O)CCOCC3)cc2)c1,31.5
7,CNc1cncc(C2CCCN(S(C)(=O)=O)C2)n1 (stereo not given),0.632
8,CN1CCCC(Cc2ccnc3ccncc23)CC1 (stereo not given),34.2
9,CC1=NOC2(CCN(Cc3c[nH]c4ccccc34)CC2)C1,-9.21
10,CC(C)CCN1CCC2(CC1)NCc1ccccc1NC2=O,-7.94
11,O=C1Nc2ccccc2CNC12CCN(CC1CC1)CC2,-9.09
12,CC(C)NC(=O)N1CCn2c(nnc2C2CCCN2)C1 (stereo not given),-9.64
13,O=C(Nc1ccccc1)N1CCn2c(nnc2C2CCNCC2)C1,-9.29
14,CC(C)NC(=O)c1cc(-c2ccc(S(C)(=O)=O)cc2)c2cnn(C)c2n1,-0.443
15,CC1(C(=O)NCc2cccc(C(F)(F)F)c2)CCOCC1,-5.33
16,CC1(C(=O)NCc2ccsc2)CCOCC1,-8.16
17,CC1(C(=O)NCCc2ccc(F)cc2)CCOCC1,-7.61
18,O=C(c1ccc(Cl)cc1)N1CCn2c(nn(-c3cccc(Cl)c3)c2=O)C1,-6.26
19,Cc1ccc(-n2nc3n(c2=O)CCN(C(=O)c2ccc(Cl)cc2)C3)cc1,-10.2
20,CC(C)NC(=O)N1CCC2(CC1)CN(C(=O)NC(C)C)CCO2,-10.3
21,O=C(C1CCCC1)N1CC2(CCNC2)OCc2ccccc21 (stereo not given),-9.78
22,O=C(c1ccccc1)N1CC2(CCNC2)OCc2ccccc21 (stereo not given),-9.98
23,O=C(NC1CC1)C1CCc2nnc(-c3cccnc3)n21 (stereo not given),-7.6

row,Compound,cytotoxicity at 70.5 h [%]
1,COc1ccccc1-c1nc(C(=O)N2CCOCC2)n2ccncc12,-9.1
2,Cn1nc(C2CCCN2)c2c(C(=O)NC3CC3)cc(C3CC3)nc21 (stereo not given),20
3,Cn1nc(C2CCCNC2)c2c(C(=O)NC3CC3)cc(C3CC3)nc21 (stereo not given),13.4
4,CS(=O)(=O)N1CC2(CCCN2Cc2ccc(Cl)cc2)Cc2ccccc21 (stereo not given),7.7
5,CC(=O)N1CC2(CCN(Cc3ccc(Cl)cc3)C2)Cc2ccccc21 (stereo not given),5.14
6,O=C(NCc1nnc2n1C(C(=O)NC1CC1)CC2)c1ccc(Cl)cc1Cl (stereo not given),4.24
7,O=S1(=O)NC2(CCCN(CCc3ccccc3)C2)COc2ccccc21 (stereo not given),0.68
8,CC(=O)N1CCN(c2ccc(Cl)nn2)C(=O)C1,-7.52
9,CC(C)NC(=O)N1CCN(c2ccc(Cl)nn2)C(=O)C1,-4.88
10,O=C(N1CCCC1)N1CCN(c2ccc(Cl)nn2)C(=O)C1,-7.98
11,Cc1ccc(CN2CCCC23Cc2ccccc2CNC3=O)cc1 (stereo not given),21.9
12,CS(=O)(=O)N1Cc2ccccc2CC2(CCN(Cc3ccccc3)C2)C1 (stereo not given),-9.03
13,CS(=O)(=O)N1CC2(CCN(Cc3ccccn3)C2)Cc2ccccc21 (stereo not given),-8
14,CS(=O)(=O)N1CC2(CCN(CC3CC3)C2)Cc2ccccc21 (stereo not given),-6.8
15,CS(=O)(=O)N1CC2(CCN(C3CCCCC3)CC2)Cc2ccccc21,-7.63
16,O=C1Nc2ccccc2CN(C/C=C/c2ccccc2)C12CCNC2 (stereo not given),2.42
17,CCCN1Cc2ccccc2NC(=O)C12CCNC2 (stereo not given),-1.87
18,O=C1NCc2ccccc2CC12CCN(Cc1ccccc1Cl)CC2,-3.39
19,COc1ccccc1CN1CCCC2(Cc3ccccc3CNC2=O)C1 (stereo not given),-1.54
20,O=C(O)c1ccccc1CN1CCC2(Cc3ccccc3CNC2=O)C1 (stereo not given),-5.35
21,O=C1NCc2ccccc2CC12CCCN(CCCc1ccccc1)C2 (stereo not given),-3.38
22,Cc1cccc(CN2CCCC3(Cc4ccccc4CNC3=O)C2)n1 (stereo not given),-5.77
23,Cn1nc(C2CCNC2)c2c(C(=O)NCC(F)(F)F)cc(C3CC3)nc21 (stereo not given),-7.49

row,Compound,cytotoxicity at 70.5 h [%]
1,O=C(c1ccc(Cl)cc1)N1CCC(N2CCCNC2=O)CC1,-6.78
2,O=C(c1ccc(Cl)cc1)N1CCC(N2CCCCC2=O)CC1,-7.46
3,O=C(c1ccc(Cl)s1)N1CCC2(CNS(=O)(=O)c3cnccc3O2)C1 (stereo not given),19.5
4,O=C(c1cccnc1)N1CCC2(CNS(=O)(=O)c3cnccc3O2)C1 (stereo not given),17.8
5,CC(C)NC(=O)N1CCC(c2nnc3n2CCNC3)CC1,16.3
6,O=S1(=O)NCC2(CCCN(Cc3ccccn3)C2)Oc2ncccc21 (stereo not given),30.8
7,CN1CCC2(Cc3ccccc3CN(C(=O)Cc3cccc(Cl)c3)C2)C1 (stereo not given),30.2
8,CCCC(=O)N1Cc2ccccc2CC2(CCN(C)C2)C1 (stereo not given),22.5
9,O=C1Nc2ccccc2CC12CCCN2Cc1ccc(F)cc1 (stereo not given),9.33
10,O=C1Nc2ccccc2CC12CCCN2Cc1cccnc1 (stereo not given),-2.78
11,CC(C)NC(=O)C1CCc2nnc(C(C)(C)C)n21 (stereo not given),-5.68
12,CN1CC(=O)N(C2CCNCC2)Cc2c(NC3CCC3)ncnc21,-7.06
13,Cc1nc(C(NC(=O)CN(C)C(C)C)c2ccccc2F)no1 (stereo not given),-4.07
14,COc1cc(Br)c(CNc2ccn(CCC(N)=O)n2)cc1OC,-4.79
15,Cn1cc(N2CCN(c3ccc(C#N)cc3F)CC2=O)cn1,-3.17
16,NC(=O)NC1(C(=O)N2CCc3c(Cl)cccc3C2)CCCCC1,8.62
17,CN(Cc1nc2ccccc2[nH]1)C(=O)CN(C)c1ccccc1,-2.68
18,NC(=O)NC1CCN(Cc2ccc3c(c2)CCC3)CC1,-5.94
19,CC(C)(C)NC(=O)c1cnc2n1CCCC2,-6.71
20,Cc1ccc(F)c(CNc2ccn(CCC(N)=O)n2)c1,3.53
21,CN(Cc1cc(Br)cn1C)C(=O)Cc1cccnc1,-9.83
22,COc1ccc2c(c1)CCCC2CC(=O)NCC(=O)O (stereo not given),-4.55
23,Cn1ccc(N2CCCC(NC(=O)c3ccc(Cl)o3)C2=O)n1 (stereo not given),-10.2

row,Compound,cytotoxicity at 70.5 h [%]
1,COc1ccc2c(c1)CCCC2CC(=O)NCC(C)(C)C(=O)O (stereo not given),-10.7
2,CCC(C)(CC(=O)OC)NCc1nc(C)no1 (stereo not given),28.3
3,CCC(C)(CC(=O)OC)NCc1cc(C)on1 (stereo not given),-11
4,CN1CCN(C(=O)C2(S(C)(=O)=O)CCCC2)Cc2ccccc21,-13.4
5,N#Cc1cccc(NC(=O)N[C@H](CO)Cc2ccc(O)cc2)c1,-9.73
6,Cc1cc(N2CCCC2c2cccnc2)nc(C)n1 (stereo not given),5.57
7,CCN1CCN2CCCN(S(=O)(=O)c3ccc(C)cc3C)C2C1=O (stereo not given),-4.62
8,CCN1CCN2CCCN(S(=O)(=O)c3ccc(S(C)(=O)=O)cc3)C2C1=O (stereo not given),-7.94
9,COCCn1cc(NC(=O)N(CCC(N)=O)Cc2ccccc2)cn1,-14.4
10,O=C(CS(=O)(=O)Cc1cccc(Br)c1)Nc1cn[nH]c1,-2.81
11,CCOC1CCN(C(=O)NCc2ccc(C(=O)N(C)C(C)C)cc2)CC1,-18.5
12,Cc1cccc(S(=O)(=O)NCc2cccc(CS(C)(=O)=O)c2)c1,9.39
13,CCNC(=O)C(C)NC(=O)Nc1ccccc1SC(F)(F)F (stereo not given),-10.8
14,CCNC(=O)C(C)NC(=O)Nc1ccccc1SCC (stereo not given),-16.9
15,Cc1nc(C(=O)N(C)CC(F)(F)C(F)(F)F)c2ccccn12,-13.5
16,CCn1ccnc1CN1CCN(c2nccc(OC)n2)CC1C (stereo not given),18.6
17,Cn1c(CCCNC(=O)Nc2cn[nH]c2)nc2ccccc21,-3.29
18,CCc1ccc(CNc2cc(-c3ccoc3C)nn2CCO)o1,-18.9
19,CN1CCc2ccc(NCc3cscn3)cc2C1=O,2.5
20,CC(C)NC(=O)NC(=O)C(C)N1CCN(C2CCN(C(C)C)CC2)CC1 (stereo not given),-3.33
21,COCCCC(=O)Nc1cccnc1N1CCCCC1,-10.4
22,c1cnc2nc(C3CCNCC3)[nH]c2c1,-11.9
23,CNCC(=O)N1CCC(c2ccnc(Nc3ccc(C)cn3)n2)C1 (stereo not given),-1.4
